Reference: ChEMBL document CHEMBL4420076, “Amylin and calcitonin receptor agonist” (2017)
Numbered stars: 1 amine (or outer) side, 2 acyl side, 3 side chain; on linkers, the order of the positions; unused ones are H or OH. Peptide text beside a SMILES is read from it. * marks the point of attachment. C20 diacid = O=C(O)CCCCCCCCCCCCCCCCCCC(=O)*; C18 diacid = O=C(O)CCCCCCCCCCCCCCCCC(=O)*; γGlu = O=C(O)[C@H](CCC(=O)[*:2])N[*:1]

Experiments:
Rattus norvegicus [1] = test: Reduction in food intake in Sprague-Dawley rat at 3 nmol/kg measured 0 to 24 hrs post dose relative to control; format: functional; design: scale not given: the % may be the effect or the level left
Rattus norvegicus [2] = test: Reduction in food intake in Sprague-Dawley rat at 3 nmol/kg measured 24 to 48 hrs post dose relative to control; format: functional; design: scale not given: the % may be the effect or the level left
[3] = biological target: T1, Amylin receptor AMY3; CALCR/RAMP3 (Homo sapiens, UniProt O60896+P30988); test: Agonist activity at human amylin receptor expressed in BHK570 cells co-expressing RAMP3 assessed as increase in intracellular cAMP concentration incubated for 3 hrs in absence of albumin by CRE luciferase reporter gene assay; format: functional, cell-based
T1 sequence (P30988 whole entry): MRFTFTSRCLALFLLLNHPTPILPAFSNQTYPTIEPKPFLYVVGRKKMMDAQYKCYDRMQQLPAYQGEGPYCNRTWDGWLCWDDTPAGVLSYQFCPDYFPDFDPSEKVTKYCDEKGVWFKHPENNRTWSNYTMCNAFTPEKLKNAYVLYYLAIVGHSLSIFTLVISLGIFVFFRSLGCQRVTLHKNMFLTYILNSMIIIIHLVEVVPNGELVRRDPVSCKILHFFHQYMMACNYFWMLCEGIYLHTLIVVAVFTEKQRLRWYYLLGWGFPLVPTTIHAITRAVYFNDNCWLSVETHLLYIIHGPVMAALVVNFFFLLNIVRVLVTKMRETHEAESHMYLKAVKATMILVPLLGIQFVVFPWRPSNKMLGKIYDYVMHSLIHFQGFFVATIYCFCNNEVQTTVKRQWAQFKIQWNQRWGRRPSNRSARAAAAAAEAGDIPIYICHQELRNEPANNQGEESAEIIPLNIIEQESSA
T1 sequence (O60896 whole entry): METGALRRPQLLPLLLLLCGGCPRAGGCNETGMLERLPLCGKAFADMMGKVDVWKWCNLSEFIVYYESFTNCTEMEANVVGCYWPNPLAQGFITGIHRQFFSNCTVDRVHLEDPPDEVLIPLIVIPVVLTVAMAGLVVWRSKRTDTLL

Calcitonin receptor [4] = biological target: T2, Calcitonin receptor (Homo sapiens, UniProt P30988); test: Agonist activity at human calcitonin receptor expressed in BHK570 cells assessed as increase in intracellular cAMP concentration incubated for 3 hrs in absence of albumin by CRE luciferase reporter gene assay; format: functional, cell-based
T2 sequence (P30988 whole entry): T1 sequence (P30988 whole entry)

[5] = biological target: T1, Amylin receptor AMY3; CALCR/RAMP3; test: Agonist activity at human amylin receptor expressed in BHK570 cells co-expressing RAMP3 assessed as increase in intracellular cAMP concentration incubated for 3 hrs in presence of 10% FBS by CRE luciferase reporter gene assay; format: functional, cell-based
Calcitonin receptor [6] = biological target: T2, Calcitonin receptor; test: Agonist activity at human calcitonin receptor expressed in BHK570 cells assessed as increase in intracellular cAMP concentration incubated for 3 hrs in presence of 10% FBS by CRE luciferase reporter gene assay; format: functional, cell-based
[7] = Solubility in 100 mM glycylglycine buffer at pH 3.0 incubated for 18 hrs by UPLC analysis; format: physicochemical
[8] = Solubility in 100 mM glycylglycine buffer at pH 4.0 incubated for 18 hrs by UPLC analysis; format: physicochemical
[9] = Solubility in 100 mM bistrispropane buffer at pH 6.0 incubated for 18 hrs by UPLC analysis; format: physicochemical
[10] = Solubility in 100 mM glycylglycine buffer at pH 5.0 incubated for 18 hrs by UPLC analysis; format: physicochemical
[11] = Solubility in 100 mM bistrispropane buffer at pH 6.5 incubated for 18 hrs by UPLC analysis; format: physicochemical
[12] = Solubility in 100 mM bistrispropane buffer at pH 7.0 incubated for 18 hrs by UPLC analysis; format: physicochemical
[13] = Solubility in 100 mM bistrispropane buffer at pH 7.5 incubated for 18 hrs by UPLC analysis; format: physicochemical
[14] = Solubility in 100 mM bistrispropane buffer at pH 8.0 incubated for 18 hrs by UPLC analysis; format: physicochemical
[15] = biological target: T1, Amylin receptor AMY3; CALCR/RAMP3; test: Displacement of [125I]-labeled rat amylin from human amylin receptor expressed in BHK tkts13 whole cells co-expressing RAMP3 incubated for 60 mins by scintillation proximity assay; format: cell-based

EC50 [3]	EC50 (Calcitonin receptor [4])	EC50 [5]	EC50 (Calcitonin receptor [6])	solubility at 18 h [7]	solubility at 18 h [8]	solubility at 18 h [9]	solubility at 18 h [10]	solubility at 18 h [11]	solubility at 18 h [12]	solubility at 18 h [13]	solubility at 18 h [14]	IC50 [15]	Compound	Activity (Rattus norvegicus [1])	Activity (Rattus norvegicus [2])
													CC(C)C[C@H](NC(=O)[C@H](C)NC(=O)[C@H](C)NC(=O)[C@@H](NC(=O)[C@H](CO)NC(=O)[C@H](CC(C)C)NC(=O)[C@H](CCC(=O)O)NC(=O)[C@H](CO)NC(=O)[C@H](C)NC(=O)CC[C@H](NC(=O)CCCCCCCCCCCCCCCCC(=O)O)C(=O)O)[C@@H](C)O)C(=O)NCC(=O)N[C@@H](CCCNC(=N)N)C(=O)N[C@@H](CC(C)C)C(=O)N[C@@H](CO)C(=O)N[C@@H](C)C(=O)N[C@@H](CCC(=O)O)C(=O)N[C@@H](CC(C)C)C(=O)N[C@@H](Cc1c[nH]cn1)C(=O)N[C@@H](CCC(=O)O)C(=O)N[C@@H](CC(C)C)C(=O)N[C@@H](C)C(=O)N[C@H](C(=O)N[C@@H](Cc1ccc(O)cc1)C(=O)N1CCC[C@H]1C(=O)N[C@@H](CCCNC(=N)N)C(=O)N[C@H](C(=O)N[C@@H](CCC(=O)O)C(=O)N[C@H](C(=O)NCC(=O)N[C@@H](CO)C(=O)NCC(=O)N[C@@H](CO)C(=O)N1CCC[C@H]1C(N)=O)[C@@H](C)O)[C@@H](C)O)[C@@H](C)O ({C18 diacid-γGlu}-ASELSTAALGRLSAELHELATYPRTETGSGSP-NH2)	74%	63%
0.065 nM	0.032 nM	0.052 nM	0.013 nM	≥ 200 µM	≥ 200 µM	≥ 200 µM	≥ 200 µM	≥ 200 µM	≥ 200 µM	≥ 200 µM	≥ 200 µM	2.15 nM	CC(C)C[C@H](NC(=O)[C@H](CCC(=O)O)NC(=O)[C@H](Cc1cnc[nH]1)NC(=O)[C@H](CC(C)C)NC(=O)[C@H](CCC(=O)O)NC(=O)[C@H](C)NC(=O)[C@H](CO)NC(=O)[C@H](CC(C)C)NC(=O)[C@H](CCCNC(=N)N)NC(=O)CNC(=O)[C@H](CC(C)C)NC(=O)[C@@H](NC(=O)[C@H](C)NC(=O)[C@@H](NC(=O)[C@@H](NC(=O)[C@H](CC(C)C)NC(=O)[C@H](CCC(=O)O)NC(=O)[C@H](CO)NC(=O)[C@H](C)NC(=O)CC[C@H](NC(=O)CCCCCCCCCCCCCCCCC(=O)O)C(=O)O)[C@@H](C)O)[C@@H](C)O)C(C)C)C(=O)N[C@@H](C)C(=O)N[C@H](C(=O)N[C@@H](CC(C)C)C(=O)N1CCC[C@H]1C(=O)N[C@@H](CCCNC(=N)N)C(=O)N[C@H](C(=O)N[C@@H](CCC(=O)O)C(=O)N[C@H](C(=O)NCC(=O)N[C@H](C(=O)NCC(=O)N[C@H](C(=O)N1CCC[C@H]1C(N)=O)[C@@H](C)O)[C@@H](C)O)[C@@H](C)O)[C@@H](C)O)[C@@H](C)O ({C18 diacid-γGlu}-ASELTTAVLGRLSAELHELATLPRTETGTGTP-NH2)		
0.038 nM	0.042 nM	0.071 nM	0.045 nM	≥ 200 µM	≥ 200 µM	≥ 200 µM	≥ 200 µM	≥ 200 µM	≥ 200 µM	≥ 200 µM	≥ 200 µM	0.111 nM	CC(C)C[C@H](NC(=O)CNC(=O)[C@H](CO)NC(=O)[C@H](C)NC(=O)CC[C@H](NC(=O)CCCCCCCCCCCCCCCCCCC(=O)O)C(=O)O)C(=O)N[C@@H](CO)C(=O)N[C@H](C(=O)N[C@@H](C)C(=O)N[C@@H](C)C(=O)N[C@@H](CC(C)C)C(=O)NCC(=O)N[C@@H](CCCNC(=N)N)C(=O)N[C@@H](CC(C)C)C(=O)N[C@@H](CO)C(=O)N[C@@H](C)C(=O)N[C@@H](CCC(=O)O)C(=O)N[C@@H](CC(C)C)C(=O)N[C@@H](Cc1cnc[nH]1)C(=O)N[C@@H](CCC(=O)O)C(=O)N[C@@H](CC(C)C)C(=O)N[C@@H](C)C(=O)N[C@H](C(=O)N[C@@H](Cc1ccc(O)cc1)C(=O)N1CCC[C@H]1C(=O)N[C@@H](CCCNC(=N)N)C(=O)N[C@H](C(=O)N[C@@H](CCC(=O)O)C(=O)N[C@H](C(=O)NCC(=O)N[C@@H](CO)C(=O)NCC(=O)N[C@@H](CO)C(=O)N1CCC[C@H]1C(N)=O)[C@@H](C)O)[C@@H](C)O)[C@@H](C)O)[C@@H](C)O ({C20 diacid-γGlu}-ASGLSTAALGRLSAELHELATYPRTETGSGSP-NH2)		
0.012 nM	0.014 nM	0.143 nM	0.074 nM	≥ 200 µM	≥ 200 µM	≥ 200 µM	≥ 200 µM	≥ 200 µM	≥ 200 µM	≥ 200 µM	≥ 200 µM	1.59 nM	CC(C)C[C@H](NC(=O)[C@H](C)NC(=O)[C@H](C)NC(=O)[C@@H](NC(=O)[C@H](CO)NC(=O)[C@H](CC(C)C)NC(=O)[C@H](CCC(=O)O)NC(=O)[C@H](CO)NC(=O)[C@H](C)NC(=O)[C@H](CCC(=O)O)NC(=O)CC[C@H](NC(=O)CCCCCCCCCCCCCCCCCCC(=O)O)C(=O)O)[C@@H](C)O)C(=O)NCC(=O)N[C@@H](CCCNC(=N)N)C(=O)N[C@@H](CC(C)C)C(=O)N[C@@H](CO)C(=O)N[C@@H](C)C(=O)N[C@@H](CCC(=O)O)C(=O)N[C@@H](CC(C)C)C(=O)N[C@@H](Cc1cnc[nH]1)C(=O)N[C@@H](CCC(=O)O)C(=O)N[C@@H](CC(C)C)C(=O)N[C@@H](C)C(=O)N[C@H](C(=O)N[C@@H](Cc1ccc(O)cc1)C(=O)N1CCC[C@H]1C(=O)N[C@@H](CCCNC(=N)N)C(=O)N[C@H](C(=O)N[C@@H](CCC(=O)O)C(=O)N[C@H](C(=O)NCC(=O)N[C@@H](CO)C(=O)NCC(=O)N[C@@H](CO)C(=O)N1CCC[C@H]1C(N)=O)[C@@H](C)O)[C@@H](C)O)[C@@H](C)O ({C20 diacid-γGlu}-EASELSTAALGRLSAELHELATYPRTETGSGSP-NH2)		
	0.023 nM		0.092 nM	≥ 200 µM	≥ 200 µM	≥ 200 µM		≥ 200 µM	≥ 200 µM	≥ 200 µM	≥ 200 µM		CC(C)C[C@H](NC(=O)CNC(=O)[C@H](CO)NC(=O)[C@H](C)NC(=O)[C@H](CCC(=O)O)NC(=O)CC[C@H](NC(=O)CCCCCCCCCCCCCCCCCCC(=O)O)C(=O)O)C(=O)N[C@@H](CO)C(=O)N[C@H](C(=O)N[C@@H](C)C(=O)N[C@@H](C)C(=O)N[C@@H](CC(C)C)C(=O)NCC(=O)N[C@@H](CCCNC(=N)N)C(=O)N[C@@H](CC(C)C)C(=O)N[C@@H](CO)C(=O)N[C@@H](CCC(N)=O)C(=O)N[C@@H](CCC(=O)O)C(=O)N[C@@H](CC(C)C)C(=O)N[C@@H](Cc1cnc[nH]1)C(=O)N[C@@H](CCC(=O)O)C(=O)N[C@@H](CC(C)C)C(=O)N[C@@H](CCC(N)=O)C(=O)N[C@H](C(=O)N[C@@H](Cc1ccc(O)cc1)C(=O)N1CCC[C@H]1C(=O)N[C@@H](CCCNC(=N)N)C(=O)N[C@H](C(=O)N[C@@H](CCC(=O)O)C(=O)N[C@H](C(=O)NCC(=O)N[C@@H](CO)C(=O)NCC(=O)N[C@H](C(=O)N[C@@H](Cc1ccc(O)cc1)C(N)=O)[C@@H](C)O)[C@@H](C)O)[C@@H](C)O)[C@@H](C)O)[C@@H](C)O ({C20 diacid-γGlu}-EASGLSTAALGRLSQELHELQTYPRTETGSGTY-NH2)	23%	10%
